Results taken from patent publication US4876245A, “Fluorine-containing macrolide compounds and their use” (Daikin Industries Ltd., priority 1986, dated 1989).
In brackets after ≈: the same amount, converted by molar mass.

What was measured:
Assay type in all cases: cell-based
Bacterioides fragilis = experiment: antimicrobial activity, agar streak method (MIC), anaerobic
Proteus vulgaris = experiment: antimicrobial activity, agar streak method (MIC), aerobic gram-negative
Mycoplasma homilis = experiment: antimicrobial activity, agar streak method (MIC)
Escherichia coli = experiment: antimicrobial activity, agar streak method (MIC), aerobic gram-negative
Bacillus subtilis = experiment: antimicrobial activity, agar streak method (MIC), aerobic gram-positive
Streptococcus pneumoniae = experiment: as above
Micrococcus luteus = experiment: as above
Neisseria gonorrhoeae = experiment: antimicrobial activity, agar streak method (MIC), aerobic gram-negative
Pseudomonas aeruginosa = experiment: as above
Salmonella typhi = experiment: as above; details: Salmonella enterica
Bacillus natto = experiment: antimicrobial activity, agar streak method (MIC), aerobic gram-positive; details: Bacillus subtilis
Streptococcus faecalis = experiment: as above; details: Enterococcus faecalis
[1] = tested on: Corynebacterium diphtheriae; experiment: as above
Streptococcus pyogenes = experiment: as above
Hemophilus influenzae = experiment: antimicrobial activity, agar streak method (MIC), aerobic gram-negative; details: Haemophilus influenzae
Clostridium perfringens = experiment: microbe, parasite or virus in culture
Shigella sonnei = experiment: antimicrobial activity, agar streak method (MIC), aerobic gram-negative
Text: The antimicrobial activities of 8,9-difluoroerythromycin 6,9-epoxide (Example 1), 8,9-difluoroerythromycin 6,9-epoxide 11,12-carbonate (Example 2) and 8,9-difluoroerythromycin 6,9-epoxide 11,12-sulfite (Example 4) are examined by an agar streak method and expressed in terms of minimal inhibitory concentrations (MIC, μg/ml) against the following bacteria.

Acholeplasma laidlawii = experiment: as above
[2] = tested on: Fusobacterium necrophorum; experiment: antimicrobial activity, agar streak method (MIC), anaerobic
Staphylococcus aureus = experiment: antimicrobial activity, agar streak method (MIC), aerobic gram-positive

SMILES | MIC (Bacterioides fragilis) | MIC (Proteus vulgaris) | MIC (Mycoplasma homilis) | MIC (Escherichia coli) | MIC (Bacillus subtilis) | MIC (Streptococcus pneumoniae) | MIC (Micrococcus luteus) | MIC (Neisseria gonorrhoeae) | MIC (Pseudomonas aeruginosa) | MIC (Salmonella typhi) | MIC (Bacillus natto) | MIC (Streptococcus faecalis) | MIC [1] | MIC (Streptococcus pyogenes) | MIC (Hemophilus influenzae) | MIC (Clostridium perfringens) | MIC (Shigella sonnei) | MIC (Acholeplasma laidlawii) | MIC [2] | MIC (Staphylococcus aureus)
CC[C@H]1OC(=O)[C@H](C)[C@@H](O[C@H]2C[C@@](C)(OC)[C@@H](O)[C@H](C)O2)[C@H](C)[C@@H](O[C@@H]2O[C@H](C)C[C@H](N(C)C)[C@H]2O)[C@@]2(C)CC(C)(F)C(F)(O2)[C@H](C)[C@@H](O)[C@]1(C)O (stereo partly drawn) [Example 1, 8,9-difluoroerythromycin A 6,9-epoxide] | 0.21 µg/mL (≈ 0.279 µM) | 26 µg/mL (≈ 34.5 µM) | 25 µg/mL (≈ 33.2 µM) | 31.2 µg/mL (≈ 41.5 µM) | 0.049 µg/mL (≈ 0.065 µM) | 0.025 µg/mL (≈ 0.0332 µM) | 0.006 µg/mL (≈ 0.00796 µM) | 0.052 µg/mL (≈ 0.069 µM) | 26 µg/mL (≈ 34.5 µM) | 13.2 µg/mL (≈ 17.5 µM) | 0.078 µg/mL (≈ 0.103 µM) | 1.25 µg/mL (≈ 1.66 µM) | 0.011 µg/mL (≈ 0.0146 µM) | 0.011 µg/mL (≈ 0.0146 µM) | 3.5 µg/mL (≈ 4.64 µM) | 0.83 µg/mL (≈ 1.1 µM) | 25 µg/mL (≈ 33.2 µM) | 0.1 µg/mL (≈ 0.133 µM) | 2 µg/mL (≈ 2.65 µM) | 0.156 µg/mL (≈ 0.207 µM)
CC[C@H]1OC(=O)[C@H](C)[C@@H](O[C@H]2C[C@@](C)(OC)[C@@H](O)[C@H](C)O2)[C@H](C)[C@@H](O[C@@H]2O[C@H](C)C[C@H](N(C)C)[C@H]2O)[C@@]2(C)CC(C)(F)C(F)(O2)[C@H](C)[C@H]2OS(=O)O[C@@]21C (stereo partly drawn) [Example 4, 8,9-difluoroerythromycin A 6,9-epoxide 11,12-sulfite] | 0.84 µg/mL (≈ 1.05 µM) | 26 µg/mL (≈ 32.5 µM) | 25 µg/mL (≈ 31.3 µM) | 7.8 µg/mL (≈ 9.75 µM) | 0.049 µg/mL (≈ 0.0613 µM) | 0.013 µg/mL (≈ 0.0163 µM) | 0.02 µg/mL (≈ 0.025 µM) | 0.052 µg/mL (≈ 0.065 µM) | 26 µg/mL (≈ 32.5 µM) | 13.2 µg/mL (≈ 16.5 µM) | 0.078 µg/mL (≈ 0.0975 µM) | 0.625 µg/mL (≈ 0.781 µM) | 0.022 µg/mL (≈ 0.0275 µM) | 0.011 µg/mL (≈ 0.0138 µM) | 7 µg/mL (≈ 8.75 µM) | 0.3 µg/mL (≈ 0.375 µM) | 12.5 µg/mL (≈ 15.6 µM) | 0.2 µg/mL (≈ 0.25 µM) | 8 µg/mL (≈ 10 µM) | 0.156 µg/mL (≈ 0.195 µM)
CC[C@H]1OC(=O)[C@H](C)[C@@H](O[C@H]2C[C@@](C)(OC)[C@@H](O)[C@H](C)O2)[C@H](C)[C@@H](O[C@@H]2O[C@H](C)C[C@H](N(C)C)[C@H]2O)[C@@]2(C)CC(C)(F)C(F)(O2)[C@H](C)[C@H]2OC(=O)O[C@@]21C (stereo partly drawn) [Example 2, 8,9-difluoroerythromycin A 6,9-epoxide 11,12-carbonate] | 0.84 µg/mL (≈ 1.08 µM) | 26 µg/mL (≈ 33.3 µM) | 25 µg/mL (≈ 32.1 µM) | 7.8 µg/mL (≈ 10 µM) | 0.049 µg/mL (≈ 0.0628 µM) | 0.013 µg/mL (≈ 0.0167 µM) | 0.02 µg/mL (≈ 0.0256 µM) | 0.052 µg/mL (≈ 0.0667 µM) | 26 µg/mL (≈ 33.3 µM) | 13.2 µg/mL (≈ 16.9 µM) | 0.078 µg/mL (≈ 0.1 µM) | 0.625 µg/mL (≈ 0.801 µM) | 0.022 µg/mL (≈ 0.0282 µM) | 0.011 µg/mL (≈ 0.0141 µM) | 7 µg/mL (≈ 8.98 µM) | 3.3 µg/mL (≈ 4.23 µM) | 12.5 µg/mL (≈ 16 µM) | 0.2 µg/mL (≈ 0.256 µM) | 8 µg/mL (≈ 10.3 µM) | 0.156 µg/mL (≈ 0.2 µM)
